Source: patent publication US8613927B2, “High affinity human antibodies to human nerve growth factor” (Regeneron Pharmaceuticals, Inc., priority 2007, dated 2013)
Read-outs that look alike come from different tables or passages of the source.

How the values were obtained:
[1] = molecular target: T1, Human NGF (PC12 cells, rat adrenal medulla cell line) (Homo sapiens, UniProt P01138, DEL136-138/DEL208-209); assay: PC12 SRE-luciferase assay of NGF signaling through p75 and TrkA; assay type: cell-based
T1 construct: host or cells: NGF added exogenously; receptors endogenous in PC12 cells
Method: The ability of NGF antibodies to block NGF signaling p75 and TrkA receptor-mediated activity was also measured in vitro using a rat adrenal medulla cell line, PC12, which express both receptors endogenously (Urdiales et al. 1998 J. Neuroscience 18(17):6767-6775). Briefly, PC12 cells were stably transfected with a reporter plasmid containing a serum response element (SRE) linked to a luciferase gene. The transfected cells were resuspended at approximately 2.5×10^5 cells per ml and plated at 50,000 cells per well in a 96-well tissue culture plate in Opti-MEM media overnight. The purified antibody proteins were serially diluted in medium (DMEM plus 0.1% BSA) and added to the plated cells at concentrations ranging from 0 to 100 nM. Human NGF was added to the wells to a final concentration of 12.5 pM. Luciferase activity was measured after incubating the cells for 6 hours at 37° C. in a humidified 7.5% CO2 incubator using BRIGHT GLOW™ luciferase assay system (Promega). Control mAb=RN624.

[2] = system: C57BL/6 mice; assay: Post-operative incision pain model, thermal hyperalgesia in Hargreaves' test; assay type: in vivo, mouse; conditions: for mean percent change from Hargreaves baseline: Table 14; for Hargreaves' test result (thermal hyperalgesia): Table 16
Method: Post-operative incision pain model. […] For the plantar incision surgery, C57BL/6 mice under isoflurane received an incision through skin, fascia and then isolating the underlying flexor muscle and bisecting vertically. After suture and recovery, the mice were tested for thermal hyperalgesia in the Hargreaves' test and for guarding behavior in the weight bearing test (model 600, IITC Life Science) for 5 days.
Thermal hyperalgesia was studied in the Hargreaves' test and mechanical allodynia was tested in the von Frey test. In this latter test, mice were tested after being acclimated for 2-3 hours for 4 days in an apparatus with a wire mesh floor. The test was performed by applying, in ascending order, a series of von Frey hairs through the wire mesh onto the plantar surface of the hind paw with the incision. A response was considered positive if the paw was raised from the platform in response to application of the filament. Starting from the thinnest hair, each von Frey filament was applied up to five times until a response was observed.

[3] = molecular target: Human NGF binding to human p75-hFc (Homo sapiens, UniProt P01138, DEL136-138/DEL208-209); assay: BIACORE receptor blocking assay, free NGF bound to p75-hFc; conditions: percentage free NGF bound; NGF 10-25 nM with molar excess of antibody; NGF alone = 100%
Excerpt: To identify blocking antibodies, a receptor blocking assay was designed using a BIACORE™ 3000 instrument. Recombinant human TrkA-hFc and human p75-hFc proteins were amine-coupled to a CM5 chip to a density of about 5000-6000 RU.

[4] = molecular target: T2, Human NGF (MG87 cells stably transfected with human TrkA receptor) (Homo sapiens, UniProt P01138, DEL136-138/DEL208-209); assay: NGF-dependent, TrkA receptor-mediated cell growth of MG87 cells (CCK8); assay type: cell-based; conditions: 373 pM human NGF; 3 days
T2 construct: host or cells: NGF added exogenously; partner TrkA made by stably transfected MG87 cells
Method: The ability of NGF antibodies to block NGF-dependent and TrkA receptor-mediated cell growth activity was carried out using MG87 cells stably transfected with a plasmid encoding human TrkA receptor. Briefly, the transfected cells were trypsinized and resuspended at approximately 2.5×10^5 cells per ml and plated at 5,000 cells per well in a 96-well tissue culture plate. The purified antibody proteins were serially diluted in defined medium plus 0.1% BSA and added to the plated cells at concentrations ranging from 0 to 500 nM. Human NGF was added to the wells to a final concentration of 373 pM. The response was measured after incubating the cells for 3 days at 37° C. in a humidified 5% CO2 incubator. Cell growth activity was measured with a CCK8 kit (Dojindo) and OD450nm recorded. The dependency of the signals on the concentrations of antibody was analyzed and IC50 values reported (Table 10, column 2).

[5] = molecular target: NGF (Homo sapiens, UniProt P01138, DEL136-138/DEL208-209); assay: BIACORE surface kinetics, binding affinity for human NGF
Method: Antigen binding affinities of the antibodies for human NGF were determined by surface kinetics using a real-time biosensor surface plasmon resonance assay (BIACORE™). Antibodies were captured on either a goat, anti-human or anti-mouse IgG polyclonal antibody surface created by direct amine coupling of the capture antibody to a BIACORE™ chip. Various concentrations of human NGF were injected over the captured antibody surfaces while the association of the antigen to the antibody and the dissociation of the bound complex were monitored in real time. Kinetic analysis was performed to obtain the equilibrium dissociation constant (KD) and dissociation rate constant, and the latter was used to calculate the antigen/antibody complex dissociation t1/2 (Table 1).
Antigen binding affinities of selected purified antibodies for NGF were also determined by surface kinetics employing a real-time biosensor surface plasmon resonance assay (BIACORE™) as described above. For convenience, antibody 301272-3H10-A10 was renamed “REGN261” (HCVR/LCVR SEQ ID NOs:84/92 and hIgG1 SEQ ID NO:541); 301272-6E07-D10 was renamed “REGN263” (HCVR/LCVR SEQ ID NO:208/216 and hIgG1 SEQ ID NO:541).

[6] = system: C57BL/6 mice; assay: Post-operative incision pain model, weight bearing test; assay type: in vivo, mouse; conditions: for mean percent weight distribution on affected limb: Table 15
Method: Post-operative incision pain model. A rodent model of post-operative pain in which a hind paw plantar incision causes increased sensitivity to touch, guarding behavior, and thermal hyperalgesia, was used to study the efficacy of anti-NGF antibody therapy. For the plantar incision surgery, C57BL/6 mice under isoflurane received an incision through skin, fascia and then isolating the underlying flexor muscle and bisecting vertically. After suture and recovery, the mice were tested for thermal hyperalgesia in the Hargreaves' test and for guarding behavior in the weight bearing test (model 600, IITC Life Science) for 5 days.

[7] = 10 mg/kg s.c. 1 hr prior to incision, p<0.001-0.05

Sequence of NGF (P01138 with tags, fused parts or gaps DEL136-138/DEL208-209): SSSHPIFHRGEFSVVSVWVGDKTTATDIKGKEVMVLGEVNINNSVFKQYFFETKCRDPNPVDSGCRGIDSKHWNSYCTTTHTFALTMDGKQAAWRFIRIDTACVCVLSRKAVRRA
T1 sequence (P01138 with tags, fused parts or gaps DEL136-138/DEL208-209): as above
Sequence of Human NGF binding to human p75-hFc (P01138 with tags, fused parts or gaps DEL136-138/DEL208-209): as above
T2 sequence (P01138 with tags, fused parts or gaps DEL136-138/DEL208-209): as above

tanezumab [RN624]
IC50 ([1]; Table 10, 12.5 pM human NGF, 6 hours, read-out: PC12 IC50): 21 pM | IC50 ([1]; Table 11, selected purified antibodies, PC12 luciferase, read-out: IC50): 4.9 pM | reduction of post-operative pain vs vehicle, Hargreaves' test [2, 7]: significantly reduced the post-operative pain | reversal of thermal hyperalgesia ([2]; 25 mg/kg i.p. on day 1 post-surgery, by 72 hours, p<0.001-0.01): return to baseline was not observed | mean percent change from Hargreaves baseline ([2]; 10 mg/kg s.c. 1 hr prior to incision, Baseline, ±SEM): 0.00 ± 0.0% | mean percent change from Hargreaves baseline ([2]; 10 mg/kg s.c. pre-incision, Day 1 after surgery): −62.5 ± 10.6% | mean percent change from Hargreaves baseline ([2]; 10 mg/kg s.c. pre-incision, Day 2 after surgery): −55.2 ± 9.4% | mean percent change from Hargreaves baseline ([2]; 10 mg/kg s.c. pre-incision, Day 3 after surgery): −5.3 ± 12.1% | mean percent change from Hargreaves baseline ([2]; 10 mg/kg s.c. pre-incision, Day 4 after surgery): −6.4 ± 8.7% | mean percent change from Hargreaves baseline ([2]; 10 mg/kg s.c. pre-incision, Day 5 after surgery): −5.3 ± 5.6% | Hargreaves' test result (thermal hyperalgesia) ([2]; 25 mg/kg i.p. on day 1 post-surgery, Baseline): 0.0 ± 0.0 | Hargreaves' test result (thermal hyperalgesia) ([2]; 25 mg/kg i.p., 6 hr after treatment): −68.1 ± 5.2 | Hargreaves' test result (thermal hyperalgesia) ([2]; 25 mg/kg i.p., 23 hr after treatment): −40.5 ± 8.9 | Hargreaves' test result (thermal hyperalgesia) ([2]; 25 mg/kg i.p., 47 hr after treatment): −37.6 ± 7.2 | Hargreaves' test result (thermal hyperalgesia) ([2]; 25 mg/kg i.p., 72 hr after treatment): −47.2 ± 8.0 | Hargreaves' test result (thermal hyperalgesia) ([2]; 25 mg/kg i.p., Day 1 (post-surgery, before injection)): −74.7 ± 4.3 | % Binding p75-hFc [3]: 16% | IC50 [4]: < 186 pM | Kd ([5]; Table 1, read-out: KD): 1.3 pM | Kd ([5]; Table 2, selected purified antibodies, read-out: KD): 1.25 pM | Kd ([5]; Table 5, read-out: Human NGF KD): 1.25 pM | Kd ([5]; Table 6, selected purified antibodies, read-out: NGF KD): 1.25 pM | reduction of post-operative pain vs vehicle, weight bearing test [6, 7]: significantly reduced the post-operative pain | mean percent weight distribution on affected limb ([6]; 10 mg/kg s.c. pre-incision, Day 0, ±SEM): 49.0 ± 0.5% | mean percent weight distribution on affected limb ([6]; 10 mg/kg, Day 1 after surgery): 44.8 ± 1.9% | mean percent weight distribution on affected limb ([6]; 10 mg/kg, Day 2 after surgery): 42.7 ± 1.8% | mean percent weight distribution on affected limb ([6]; 10 mg/kg, Day 3 after surgery): 48.7 ± 1.9% | mean percent weight distribution on affected limb ([6]; 10 mg/kg, Day 4 after surgery): 47.2 ± 1.2% | mean percent weight distribution on affected limb ([6]; 10 mg/kg, Day 5 after surgery): 49.7 ± 0.7%
